Results on five molecules are retold here after article PMC11836537, “An isofagomine analogue with an amidine group in the 1,6-position” (Royal Society Open Science, 2025).

The target in one data set is α-glucosidase. Nature of the data set: glycosidase inhibition, α-glucosidase. The data set is classed as biochemical. The following applies: α-glucosidase from Saccharomyces cerevisiae, pH 6.8. The source says:
(§1) The glycosidase inhibitory activities (IC50 (µM)) of amidines 5 and 6 on a panel of six glycosidases are presented in table 1 and compared with structurally related isofagomine (3) and amidine 4.

For data set [1], the target named is β-glucosidase. Nature of the data set: glycosidase inhibition, β-glucosidase. Format: biochemical. The following applies: β-glucosidase from almonds, pH 6.8.
Source text: as §1

Data set [2] has as its target T1, α-galactosidase (Coffea arabica, UniProt Q42656). Nature of the data set: glycosidase inhibition, α-galactosidase. The data set is classed as biochemical.
Source text: as §1

For data set [3], the target named is T2, β-galactosidase (Aspergillus oryzae, UniProt Q2UCU3). Nature of the data set: glycosidase inhibition, β-galactosidase (Aspergillus oryzae). The data set is classed as biochemical.
T2 sequence (Q2UCU3 19-1005): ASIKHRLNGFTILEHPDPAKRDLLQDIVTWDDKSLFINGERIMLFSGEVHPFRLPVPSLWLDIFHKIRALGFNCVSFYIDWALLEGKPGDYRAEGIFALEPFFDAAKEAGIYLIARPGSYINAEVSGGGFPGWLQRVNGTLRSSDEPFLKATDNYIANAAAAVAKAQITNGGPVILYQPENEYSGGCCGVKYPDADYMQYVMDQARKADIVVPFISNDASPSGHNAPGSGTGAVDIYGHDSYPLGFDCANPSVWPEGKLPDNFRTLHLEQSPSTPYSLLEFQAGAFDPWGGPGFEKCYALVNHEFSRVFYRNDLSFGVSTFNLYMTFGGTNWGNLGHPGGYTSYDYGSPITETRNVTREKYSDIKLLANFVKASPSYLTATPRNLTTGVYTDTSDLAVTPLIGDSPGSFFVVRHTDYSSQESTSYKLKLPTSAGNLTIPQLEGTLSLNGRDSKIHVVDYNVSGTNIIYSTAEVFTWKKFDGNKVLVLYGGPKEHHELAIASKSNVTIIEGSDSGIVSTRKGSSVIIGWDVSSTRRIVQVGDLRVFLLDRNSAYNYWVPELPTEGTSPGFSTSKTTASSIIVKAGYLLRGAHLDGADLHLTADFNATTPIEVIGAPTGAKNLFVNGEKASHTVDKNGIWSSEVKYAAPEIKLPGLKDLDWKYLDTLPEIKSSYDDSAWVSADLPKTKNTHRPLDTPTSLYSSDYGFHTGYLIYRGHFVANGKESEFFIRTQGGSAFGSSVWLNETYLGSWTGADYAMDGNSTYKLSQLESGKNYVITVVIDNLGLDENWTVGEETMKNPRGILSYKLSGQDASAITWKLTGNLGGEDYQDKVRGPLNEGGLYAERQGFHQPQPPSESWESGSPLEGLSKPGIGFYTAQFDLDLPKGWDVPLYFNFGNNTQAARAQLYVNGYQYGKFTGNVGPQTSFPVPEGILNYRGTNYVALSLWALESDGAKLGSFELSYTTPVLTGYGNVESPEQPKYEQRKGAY
Source text: as §1

Data set [4] concerns the target β-galactosidase (Escherichia coli, UniProt P00722). Nature of the data set: glycosidase inhibition, β-galactosidase (Escherichia coli). Format: biochemical.
Source text: as §1

The target in data set [5] is T3, α-mannosidase (Canavalia ensiformis, UniProt C0HJB3).
T3 sequence (C0HJB3 1-981): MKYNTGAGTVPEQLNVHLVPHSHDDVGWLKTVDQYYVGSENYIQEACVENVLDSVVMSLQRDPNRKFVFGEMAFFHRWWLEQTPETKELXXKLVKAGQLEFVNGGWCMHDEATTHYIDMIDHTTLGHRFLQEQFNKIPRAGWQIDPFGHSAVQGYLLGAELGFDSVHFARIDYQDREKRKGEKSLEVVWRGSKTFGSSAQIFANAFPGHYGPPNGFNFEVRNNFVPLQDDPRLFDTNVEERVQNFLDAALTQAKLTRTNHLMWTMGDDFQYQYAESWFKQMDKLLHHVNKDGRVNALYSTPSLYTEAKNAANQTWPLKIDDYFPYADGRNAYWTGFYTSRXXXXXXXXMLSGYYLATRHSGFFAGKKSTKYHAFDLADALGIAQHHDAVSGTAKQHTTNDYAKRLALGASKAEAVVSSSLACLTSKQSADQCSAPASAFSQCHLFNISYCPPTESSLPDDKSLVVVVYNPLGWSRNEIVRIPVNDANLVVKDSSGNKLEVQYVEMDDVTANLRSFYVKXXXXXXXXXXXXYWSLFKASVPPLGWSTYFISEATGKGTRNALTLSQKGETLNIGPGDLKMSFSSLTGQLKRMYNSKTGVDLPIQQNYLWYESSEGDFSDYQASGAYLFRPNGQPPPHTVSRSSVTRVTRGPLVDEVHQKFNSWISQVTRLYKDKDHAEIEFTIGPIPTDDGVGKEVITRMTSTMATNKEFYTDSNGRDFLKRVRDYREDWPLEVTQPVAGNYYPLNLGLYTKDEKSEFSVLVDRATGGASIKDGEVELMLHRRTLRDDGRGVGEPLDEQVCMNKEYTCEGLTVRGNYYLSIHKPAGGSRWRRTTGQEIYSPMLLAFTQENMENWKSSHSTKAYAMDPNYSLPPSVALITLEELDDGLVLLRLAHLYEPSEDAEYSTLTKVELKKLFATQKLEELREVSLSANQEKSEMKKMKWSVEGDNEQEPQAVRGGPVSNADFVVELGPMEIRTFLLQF
Nature of the data set: glycosidase inhibition, α-mannosidase. Format: biochemical. Particulars: α-mannosidase from jack beans, pH 5.6.
Source text: as §1

Data set [6] relates to all tested enzymes (panel of six glycosidases). Nature of the data set: glycosidase inhibition, whole panel of six glycosidases. Format: biochemical. Particulars: for glycosidase inhibition in words: all enzymes in the panel.
Source text: as §1

Data set [7] is described as follows: pKa determination by NMR titration in D2O. The data set is classed as physicochemical. The following applies: for pKa: D2O; for pH* at which degradation started: during NMR titration in D2O. The source says: The pKa values for azasugars have been determined by NMR spectroscopy in other studies. This methodology was also applied in this study to determine the pKa value of 6. […] The sigmoidal curve is missing points at high pH* values (greater than 11) because 6 started degrading at roughly pH* 10.5. Recording of both a ^1H NMR and ^13C HSQC spectra at each titration point allowed us to track the changes in chemical shifts at pH levels higher than where the degradation initially started. The pKa of amidine 5 was determined at even lower accuracy than for 6, because it started degrading at roughly pH* 9.4, where there is no indication of 5 being deprotonated.

In data set [8] the target is β-glucosidase. Particulars: cited from earlier work.
Data set [9] addresses T1, α-galactosidase. The arrangement: key to inhibition: NI = no inhibition. Particulars: α-galactosidase from green coffee beans, pH 6.8; cited from earlier work.
For data set [10], the target named is T2, β-galactosidase. The following applies: β-galactosidase from Aspergillus oryzae, pH 6.8; cited from earlier work.
Data set [11] concerns the target T3, α-mannosidase. Particulars: α-mannosidase from jack beans, pH 5.6; cited from earlier work.
For data set [12] the following is noted: cited from earlier work.
The mark [13] stands for this setting: β-glucosidase from almonds, pH 6.8.

Where two headings read alike, the source gives them in different places. Where only a bound is given, the exact number is not on record here.

T1 sequence (Q42656 16-378): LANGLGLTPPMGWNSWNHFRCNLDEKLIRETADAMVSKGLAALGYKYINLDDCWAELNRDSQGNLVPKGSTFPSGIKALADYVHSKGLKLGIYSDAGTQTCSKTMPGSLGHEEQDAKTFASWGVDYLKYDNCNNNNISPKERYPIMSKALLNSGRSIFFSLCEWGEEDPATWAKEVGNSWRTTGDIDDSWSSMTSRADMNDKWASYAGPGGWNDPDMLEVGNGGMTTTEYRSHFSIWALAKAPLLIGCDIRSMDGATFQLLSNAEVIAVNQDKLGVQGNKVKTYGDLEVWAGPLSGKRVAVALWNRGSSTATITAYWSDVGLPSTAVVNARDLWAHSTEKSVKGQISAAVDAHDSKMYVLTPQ
β-galactosidase (Escherichia coli, UniProt P00722), sequence (P00722 2-1024 limits assumed): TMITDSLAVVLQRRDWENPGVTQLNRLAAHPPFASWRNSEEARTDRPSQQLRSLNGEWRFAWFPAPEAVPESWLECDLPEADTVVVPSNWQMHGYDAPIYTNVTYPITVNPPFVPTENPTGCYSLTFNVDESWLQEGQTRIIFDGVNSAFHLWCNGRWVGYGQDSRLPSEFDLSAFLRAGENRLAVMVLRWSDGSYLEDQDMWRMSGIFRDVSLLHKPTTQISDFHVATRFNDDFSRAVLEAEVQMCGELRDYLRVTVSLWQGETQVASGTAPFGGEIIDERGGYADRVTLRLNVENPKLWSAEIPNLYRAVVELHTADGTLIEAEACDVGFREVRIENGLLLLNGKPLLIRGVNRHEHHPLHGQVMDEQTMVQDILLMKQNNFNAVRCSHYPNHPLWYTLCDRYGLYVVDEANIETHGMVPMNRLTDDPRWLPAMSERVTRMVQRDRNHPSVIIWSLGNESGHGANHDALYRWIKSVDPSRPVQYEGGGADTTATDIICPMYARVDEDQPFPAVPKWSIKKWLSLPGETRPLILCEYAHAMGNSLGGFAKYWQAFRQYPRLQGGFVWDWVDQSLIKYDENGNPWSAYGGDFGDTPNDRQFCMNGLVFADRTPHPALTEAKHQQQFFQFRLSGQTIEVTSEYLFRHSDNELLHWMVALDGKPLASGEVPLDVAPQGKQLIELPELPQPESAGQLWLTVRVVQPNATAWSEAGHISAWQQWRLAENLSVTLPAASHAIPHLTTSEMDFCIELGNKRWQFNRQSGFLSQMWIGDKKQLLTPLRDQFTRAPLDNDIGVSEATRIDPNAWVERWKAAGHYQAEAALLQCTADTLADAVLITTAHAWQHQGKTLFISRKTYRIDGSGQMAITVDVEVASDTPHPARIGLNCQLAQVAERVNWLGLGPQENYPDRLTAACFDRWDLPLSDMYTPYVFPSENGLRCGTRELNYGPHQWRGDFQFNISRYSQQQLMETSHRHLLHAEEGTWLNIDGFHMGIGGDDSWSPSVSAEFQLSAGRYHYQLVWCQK

`N=C1[C@H](CO)[C@@H](O)[C@H](O)CN1Cc1ccccc1` [compound 6]: the IC50 against α-glucosidase, at β-glucosidase [1], at α-galactosidase [2], against β-galactosidase [3], against β-galactosidase [4] and against α-mannosidase [5] was > 50 µM each time. Further, the “glycosidase inhibition in words” value in [6] is listed as “very weak inhibitor”. Further, the pKa (in general, the pH at which an ionisable group is half protonated) was > 11 in [7] (inflection point of 2-Ha chemical shift versus pH* (pH measured in D2O), read-out: pKa*) and > 10.6 in data set [7] (pKa* corrected with a correction factor, read-out: pKa (corrected)). For the same molecule, the “pH* at which degradation started” value in [7] is recorded as ~10.5.
In the case of `N=C1NC[C@H](CO)[C@@H](O)[C@@H]1O` [compound 4], the figures for the inhibition constant (Ki) at β-glucosidase [8] (setting [13]), at β-galactosidase [10] and on α-mannosidase [11] were 450 µM, 17400 µM and 0.75 µM, respectively. In addition, the inhibition entry at α-galactosidase [9] is listed as “NI^g,i”.
For the molecule `NC1=N[C@H](CO)[C@@H](O)[C@H](O)[C@H]1O` [compound 2, ᴅ-glucoamidine], the pKa in data set [12] is recorded as ≥ 10.5. Besides, the “fold stronger base than 1” value in [12] (compared with 1-deoxynojirimycin (1)) is reported as “roughly 7900 fold”.
`OC[C@H]1CNC[C@@H](O)[C@@H]1O` [compound 3, isofagomine]: the Ki at β-glucosidase [8] (almond β-glucosidase) and at β-glucosidase [8] (setting [13]) was 0.11 µM throughout. Moreover, the concentration for half-maximal inhibition (IC50) (as a rule, the point on the concentration scale where inhibition reaches its midpoint) on α-galactosidase [9] was > 2000 µM; on β-galactosidase [10], 270 µM; on α-mannosidase [11], 250 µM.
For `N=C1NC[C@@H](O)[C@H](O)[C@H]1CO` [compound 5], the IC50 at α-glucosidase was > 50 µM; against β-glucosidase [1], > 50 µM; at α-galactosidase [2] (α-galactosidase from green coffee beans, pH 6.8, read-out: IC50) it was > 50 µM; on β-galactosidase [3] (β-galactosidase from Aspergillus oryzae, pH 6.8, read-out: IC50), > 50 µM; on β-galactosidase [4] (β-galactosidase from Escherichia coli, pH 6.8, read-out: IC50), > 50 µM; at α-mannosidase [5], > 50 µM. For the same molecule, the 50% inhibitory concentration (IC50) in data set [6] (all tested enzymes, read-out: IC50 against all tested enzymes) is > 50 µM. In addition, in data set [6], the “glycosidase inhibition in words” value was “very poor inhibitor”. In data set [7], the “pH* at which degradation started” value is listed as ~9.4.
